Patent US7745474B2, “Imidazole derivatives for the treatment of gastrointestinal disorders” (AstraZeneca AB, priority 2005, dated 2010)

Biological target: T1, GABAB receptor (GABABR1a/GABABR2 heterodimer) (Homo sapiens, UniProt O75899+Q9UBS5)
T1 construct: expressed in transfected cells
Assay: [35S]-GTPγS binding assay, potency of positive allosteric modulator on GABA EC50
Type: biochemical
Conditions: potency of the modulator: concentration required to reduce GABA's EC50 by 50%
From the text: GABABR1a and GABABR2 were cloned from human brain cDNA and subcloned into pCI-Neo (Promega) and pALTER-1 (Promega), respectively. A GABABR1a-Gαqi5 fusion protein expression vector was constructed using the pCI-Neo-GABABR1a cDNA plasmid and pLEC1-Gαqi5 (Molecular Devices, CA). In order to make the Gαqi5 pertussis toxin insensitive, Cys356 was mutated to Gly using standard PCR methodology with the primers 5′-[…]-3 (forward) and 5′-GCGGCCG […]-3′ (reverse). The Gαqi5mut cDNA was ligated into the BamnHI and NotI sites of pcDNA3.0 (Invitrogen). The GABABR1a coding sequence was amplified by PCR from pCI-Neo-GABABR1a using the primers, 5′-[…]-3′ (forward) and 5′-[…]-3′ (reverse) and subdloned into the BamHI site of pcDNA3.0-Gαqi5mut.
For generation of stable cell lines, CHO-K1 cells were grown in Nut mix F-12 (Ham) media supplemented with 10% FBS, 100 U/ml Penicillin and 100 μg/nl Streptomycin at 37° C. in a humidified CO2-incubator. […]
[^35S]-GTPγS binding assays were performed at 30° C. for 45 min in membrane buffer (100 mM NaCl, […], 1 mM EDTA, 50 mM HEPES, pH 7.4) containing 0.025 μg/μl of membrane protein (prepared from the cell lines described above) with 0.01% bovine serum albumin (fatty acid free), 10 μM GDP, 100 μM DTT and 0.53 nM [^35S]-GTPγS (Amersham-Pharmacia Biotech) in a final volume of 200 μl. Nonspecific binding was determined in the presence of 20 μM GTPγS. […]

T1 sequence (Q9UBS5 15-961 limits assumed): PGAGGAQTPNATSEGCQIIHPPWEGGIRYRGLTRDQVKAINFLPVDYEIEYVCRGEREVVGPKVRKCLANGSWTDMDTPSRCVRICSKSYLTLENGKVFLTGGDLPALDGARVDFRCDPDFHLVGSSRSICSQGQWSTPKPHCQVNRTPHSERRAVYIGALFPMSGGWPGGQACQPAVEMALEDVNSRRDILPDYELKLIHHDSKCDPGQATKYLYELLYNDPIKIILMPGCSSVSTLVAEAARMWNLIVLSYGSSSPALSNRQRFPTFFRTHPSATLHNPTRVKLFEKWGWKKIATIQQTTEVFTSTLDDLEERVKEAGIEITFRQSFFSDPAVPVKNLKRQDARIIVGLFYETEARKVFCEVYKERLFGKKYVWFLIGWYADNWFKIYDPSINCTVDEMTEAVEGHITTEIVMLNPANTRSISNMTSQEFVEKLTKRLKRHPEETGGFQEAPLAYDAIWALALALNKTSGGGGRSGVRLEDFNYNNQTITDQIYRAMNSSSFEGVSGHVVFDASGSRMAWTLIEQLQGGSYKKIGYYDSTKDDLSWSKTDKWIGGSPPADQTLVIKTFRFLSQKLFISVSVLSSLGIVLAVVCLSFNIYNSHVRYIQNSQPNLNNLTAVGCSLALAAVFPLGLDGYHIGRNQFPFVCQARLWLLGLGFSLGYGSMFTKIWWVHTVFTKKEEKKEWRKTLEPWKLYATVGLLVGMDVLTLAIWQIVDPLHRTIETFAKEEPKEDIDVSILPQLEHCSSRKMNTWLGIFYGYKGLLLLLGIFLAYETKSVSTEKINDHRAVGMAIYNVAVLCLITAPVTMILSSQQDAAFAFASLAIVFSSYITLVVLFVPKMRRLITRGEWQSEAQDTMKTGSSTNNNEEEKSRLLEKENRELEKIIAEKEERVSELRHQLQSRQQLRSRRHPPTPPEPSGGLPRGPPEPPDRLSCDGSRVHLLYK
T1 sequence (O75899 42-941): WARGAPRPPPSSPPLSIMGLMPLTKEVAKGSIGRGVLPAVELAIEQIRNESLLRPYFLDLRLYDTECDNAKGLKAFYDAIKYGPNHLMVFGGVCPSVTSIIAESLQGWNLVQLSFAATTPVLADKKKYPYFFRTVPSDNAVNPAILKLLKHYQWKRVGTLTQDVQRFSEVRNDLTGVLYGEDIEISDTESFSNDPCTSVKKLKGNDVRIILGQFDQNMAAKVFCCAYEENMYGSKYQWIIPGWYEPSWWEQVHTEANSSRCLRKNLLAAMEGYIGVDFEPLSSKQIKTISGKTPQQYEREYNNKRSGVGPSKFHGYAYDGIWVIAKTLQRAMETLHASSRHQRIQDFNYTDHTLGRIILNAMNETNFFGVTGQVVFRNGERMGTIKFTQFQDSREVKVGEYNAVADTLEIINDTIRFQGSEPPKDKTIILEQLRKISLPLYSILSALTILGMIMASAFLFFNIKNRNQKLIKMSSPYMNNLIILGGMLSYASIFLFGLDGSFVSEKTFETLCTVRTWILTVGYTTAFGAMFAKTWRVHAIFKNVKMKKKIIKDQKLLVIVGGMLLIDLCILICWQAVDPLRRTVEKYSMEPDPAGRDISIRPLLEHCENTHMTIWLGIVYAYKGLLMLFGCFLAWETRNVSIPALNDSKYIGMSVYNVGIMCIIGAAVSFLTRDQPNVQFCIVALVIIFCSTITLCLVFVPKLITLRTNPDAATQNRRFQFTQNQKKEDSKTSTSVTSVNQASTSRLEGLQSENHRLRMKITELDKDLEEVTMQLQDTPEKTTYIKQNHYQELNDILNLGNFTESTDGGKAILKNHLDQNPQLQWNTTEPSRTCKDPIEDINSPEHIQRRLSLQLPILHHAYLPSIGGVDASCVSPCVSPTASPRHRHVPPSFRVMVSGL

SMILES	EC50 [nM]
CN(C)c1nc(NC(=S)C2COc3ccccc3O2)c(C(=O)OC(C)(C)C)n1-c1ccccc1 (centres unmarked) [Example 6, tert-butyl 4-[(2,3-dihydro-1,4-benzodioxin-2-ylcarbonothioyl)amino]-2-(dimethylamino)-1-phenyl-1H-imidazole-5-carboxylate]	2270
CN(C)c1nc(/N=C(/c2ccc(Cl)cc2)N2CCCC2)c(C(=O)OC(C)(C)C)n1-c1ccccc1 [Example 2, tert-butyl 4-{[(1Z)-(4-chlorophenyl)(pyrrolidin-1-yl)methylene]amino}-2-(dimethylamino)-1-phenyl-1H-imidazole-5-carboxylate]	2380
